Test results: patent US20090311214A1, “COMPOSITIONS AND METHODS FOR THE INNATE IMMUNE RESPONSE PATHWAY” (UNIVERSITY OF MARYLAND, BALTIMORE, priority 2008, published 2009)
“Also recorded” adds a separate entry of the source.

Tests used:
Assay type in all cases: cell-based, human
IFNγ-treated immDC = IFNγ-treated immDC exposed to PTG with or without IL-1ra or IL-1β; conditions: addition to IFNγ-treated immDC
Procedure: IL-23 is only secreted by activated APC such as monocytes, macrophages and DC, which reduces the number of possible cell sources considerably. To determine which of these cell populations was the source of IL-23 in response to PTG, purified lymphocytes, monocytes, or monocyte-derived DC cultured with GM-CSF and IL-4, were incubated in the presence or absence of PTG for 24 h, at which time supernatants were collected for IL-23, IL-1β, IL-6, IFNγ and TNFα analysis. […] Since neither PTG nor β-glucan activated cytokine production in DC differed from monocytes, we examined the response after pretreatment with IFNγ, given that this treatment has been necessary for the IL-23 response to a variety of agents including β-glucan. immDC were cultured in the presence or absence of IFNγ for 18 h prior to addition of PTG, after which supernatants were subjected to cytokine analysis as described above. […] Moreover, these findings provide insight to the mechanisms in which IFNγ counteracts IL-1 dependent TH17 responses. […]

monocytes [1] = assay: Purified monocytes pretreated with IL-1ra before PTG or β-glucan
Procedure: To better understand the contribution of IL-1 signaling in the IL-23/TH17 innate response to PTG in monocyte and immDC populations, we pretreated monocytes, immDC and IFNγ-treated immDC with the naturally occurring anti-inflammatory IL-1 receptor antagonist (IL-1ra) for 1 h prior to stimulation with PTG or β-glucan as a positive control, or incubated with increasing doses of exogenous IL-1β for 20 h. […] Contradictory to the monocyte response, addition of IL-1ra or IL-1β to IFNγ-treated immDC had no effect on the IL-23/TH17 profile induced by PTG exposure (FIG. 3D), providing further indication that monocytes exposed to gluten and not their progeny DC have the potential to activate autoreactive memory TH17 cells. Indeed, other groups have reported in human studies that activated monocytes, which produce IL-1β and IL-23, are the best inducers of TH17 cells (Evans et al., Proc. Natl. Acad. Sci., U.S.A., 104(43):17034-17039 (2007)).
(§1) Elutriated monocyte cultures. 5×10^5 monocytes/ml were cultured in cRPMI with and without 100 μg/ml PTG, 100 μg/ml β-glucan, or 0.5-50 ng/ml rhIL-1β in 96 well U-bottom plates at 37° C. in 5% CO2 for 20 h. Alternatively, 5×10^5 monocytes/ml were incubated with 0.5 μg/ml rhIL-1ra at 37° C. in 5% CO2 for 1 h then cultured with and without 100 μg/ml PTG or β-glucan for an additional 20 h. Cell-free culture supernatants were harvested for cytokine and chemokine analysis.
(§2) Cytokine & chemokine analysis. Cell-free culture supernatants were analyzed for IL-1β, IL-1ra, IL-6, IL-12p70, IFNγ, TNFα (Bio-Plex Cytokine Assay kit, Bio-Rad) or IL-1β, IL-23 (ELISA kit, eBiosciences), IL-1ra and CCL20 (Quantikine ELISA kit, R & D Systems) following the manufacturers' protocols. Appropriate standard curves were included in each assay.

PBMC [2] = assay: PBMC pretreated with IL-1ra before stimulation with PTG or β-glucan
Procedure: Considering the essential role for IL-1β in the IL-23/TH17 innate response in purified monocytes, we predicted that IL-1β regulates the cytokine profile triggered by PTG and β-glucan in whole PBMC as well. To this end, PBMC were pretreated with IL-1ra for 1 h prior to stimulation with PTG or β-glucan, or incubated with 5 ng/ml IL-1β alone for 20 h.
(§3) PBMC cultures. PBMC from CD patients and HLA-DQ2^+ healthy controls was tested as follows. 10^6 PBMC/ml were incubated in RPMI-1640 supplemented with 10% heat inactivated hAB, 1% L-glutamine, 1% Pen-Strep and 20 mM Hepes Buffer (cRPMI) with and without PTG, β-glucan, 5 ng/ml rhIL-1β, or 10 μg/ml pooled synthetic 20 mers of α-gliadin in 96 well U-bottom plates (Denville Scientific Inc.) at 37° C. in 5% CO2 for 6, 24, 48, or 72 h. Alternatively, 10^6 PBMC/ml were incubated with 0.5 μg/ml rhIL-1ra at 37° C. in 5% CO2 for 1 h then cultured with and without 100 μg/ml PTG or 500 μg/ml β-glucan for an additional 20 h. Cell-free culture supernatants were harvested for cytokine and chemokine analysis.
as §2

PBMC [3] = assay: PBMC cultures with PTG, β-glucan, IL-1β or α-gliadin peptides; cytokine/chemokine analysis of supernatants
Procedure: We cultured PBMC from HLA-DQ2 positive and HLA-DQ2 negative healthy persons in the presence or absence of 100 ug/ml of PTG or β-D-glucan from barley as a positive control for 20 h. Cell-free culture supernatants were harvested and analyzed for proinflammatory cytokines IL-1β, IL-6, IFNγ, TNFα (Luminex) IL-23 and the TH17 chemokine CCL20/MIP-3α (ELISA).
as §3, §2

monocytes [4] = assay: Purified lymphocytes, monocytes or monocyte-derived DC with PTG, β-glucan or IL-1β
Procedure: IL-23 is only secreted by activated APC such as monocytes, macrophages and DC, which reduces the number of possible cell sources considerably. To determine which of these cell populations was the source of IL-23 in response to PTG, purified lymphocytes, monocytes, or monocyte-derived DC cultured with GM-CSF and IL-4, were incubated in the presence or absence of PTG for 24 h, at which time supernatants were collected for IL-23, IL-1β, IL-6, IFNγ and TNFα analysis. […] Since neither PTG nor β-glucan activated cytokine production in DC differed from monocytes, we examined the response after pretreatment with IFNγ, given that this treatment has been necessary for the IL-23 response to a variety of agents including β-glucan. immDC were cultured in the presence or absence of IFNγ for 18 h prior to addition of PTG, after which supernatants were subjected to cytokine analysis as described above. […] Moreover, these findings provide insight to the mechanisms in which IFNγ counteracts IL-1 dependent TH17 responses.
While IL-1β is produced by many cell types, IL-23 production is thought to be restricted to activated APC. […] To investigate this hypothesis, we exposed purified lymphocytes, monocytes, or monocyte-derived DC (cultured with GM-CSF and IL-4 for 72 h) to PTG overnight and analyzed the cell-free culture supernatants for IL-23 and related “Th17” polarizing mediators.
as §1, with “Cell-free culture supernatants were harvested for cytokine and chemokine analysis.” left out
as §2, with “Appropriate standard curves were included in each assay.” left out

[5] = monocytes, IL-1ra 1 h prior to stimulation
[6] = PBMC, 5 ng/ml IL-1β alone, 20 h

Substance	effect on the IL-23/TH17 profile induced by PTG exposure (IFNγ-treated immDC)	IL-23, TNFα, IL-6 and CCL20 responses to PTG (monocytes [1]; [5])	cytokine response to β-glucan (monocytes [1]; [5])	IL-23 responses to PTG and β-glucan (monocytes [1]; purified monocytes, 0.5 μg/ml IL-1ra, 20 h)	IL-1β and IL-23 responses generated by monocytes exposed to gliadin (monocytes [1]; summary statement)	IL-23 and IL-1β responses to PTG and β-glucan (PBMC [2]; 0.5 μg/ml IL-1ra 1 h prior, stimulation 20 h, mean of 10 experiments)	induction of IL-23 in response to PTG and β-glucan (PBMC [2]; PBMC from CD patients)	levels of IL-1β in PBMC treated with PTG or β-glucan (PBMC [2]; PBMC from CD patients)	IL-23, TNF-α, IL-6 and CCL20 responses to PTG and β-glucan (PBMC [2]; PBMC from healthy individuals, IL-1ra 1 h prior to stimulation, 20 h)	reduction of the IL-1β response (PBMC [2]; PBMC, IL-1ra 1 h prior to PTG or β-glucan, 20 h)	CCL20 and IL-6 produced compared with PTG (PBMC [3]; [6])	IL-23 and TNFα produced compared with PTG (PBMC [3]; [6])	capacity to stimulate IL-23 production, lower than that of PTG or β-glucan (PBMC [3]; PBMC, 5 ng/ml IL-1β, 20 h, mean of 10 experiments)	IL-23 production by IL-1β alone relative to PTG and β-glucan (PBMC [3]; PBMC, physiologic concentrations of exogenous IL-1β)	IL-23 response of monocytes to exogenous IL-1β (monocytes [4]; 0.5, 5 or 50 ng/ml rhIL-1β, 20 h)	capacity to activate IL-23 secretion, reduced compared to PTG or β-glucan (monocytes [4]; purified monocytes, 20 h, means of 5 experiments)	dose dependence of IL-1β and IL-23 production (PBMC [3]; PBMC from CD patients, 25-500 μg/ml, 24 h)	IL-23 response in HLA-DQ2+ compared to HLA-DQ2 negative healthy individuals (PBMC [3]; PBMC, 24 h)	concentration at which detectable levels of IL-23 were achieved (PBMC [3]; dose response curves, PBMC from CD patients, 24 h)	cell source of IL-23, IL-1β, CCL20, TNFα and IL-6 secretion (monocytes [4]; purified lymphocytes, monocytes, monocyte-derived DC, 100 μg/ml PTG, 24 h)
IL-1ra: naturally occurring anti-inflammatory IL-1 receptor antagonist; recombinant human, purchased from R & D Systems	had no effect	drastically inhibited	inhibited	significantly inhibited; also recorded: blocks	substantially inhibits	significantly inhibits	completely inhibited	markedly reduced	inhibits; also recorded: almost completely inhibited	~60%										
IL-1β: recombinant human IL-1β purchased from R & D Systems	had no effect										equivalent concentrations	reduced levels	~10 fold	much lower levels	dose dependent manner	~10 fold				
β-D-glucan [β-glucan, reference compound]																	dose-dependent production	substantially more IL-23; also recorded: more pronounced effect	500 µg/mL	confined to monocytes
